Source: article PMC12165799, “Antimicrobial peptide developed with machine learning sequence optimization targets drug resistant Staphylococcus aureus in mice” (The Journal of Clinical Investigation, 2025)

System: S. aureus MW2
Test: ATP release assay (luciferase)
Format: cell-based, Staphylococcus aureus
Conditions: 32 μg/mL, 30 minutes
Protocol: 484 min at room temperature in the dark based on a previously established protocol (8). We added 90
485 µl of the dye/bacteria mixture to 10 μl of serially diluted 10× peptide concentration in black, 96-
486 well plates (Cat. no. 3904, Corning, NY, USA) and incubated the plates for 1 hour at room
487 temperature. We measured the fluorescence with excitation and emission wavelengths of 485 nm
488 and 525 nm, respectively in endpoint assay mode using a SpectraMax i3x (Molecular Devices,
489 CA, USA) fluorescence reader.
490 Propidium iodide-based membrane permeability
491 We used a propidium iodide (Thermo Fisher Scientific, MA, USA) fluorescence-based
492 bacterial permeation assay to establish membrane-oriented interactions with the designed peptides
493 based on a previously established protocol (8). We prepared exponential phase S. aureus MW2
494 bacteria and diluted to OD600 = 0.4 in PBS. We added PI dye (final concentration = 2 µM) to the
495 bacteria in 1:10 serial dilutions in black, 96-well plates (Cat. no. 3904, Corning, NY, USA) and
496 incubated the plates for 1 hour at room temperature. We then measured the fluorescence with an
497 excitation wavelength of 584 nm and an emission wavelength of 620 nm in endpoint assay mode
498 using a SpectraMax i3x (Molecular Devices, CA, USA) fluorescence reader.
501 To determine the ATP leakage potential of the peptides, we employed a luciferase-based […]

## H-GLFKVIKKLLKVI-NH2 [CIT-8]
  ATP leakage, luminescence: increased luminescence levels
